Literature values, collected in patent US7820851B2, “Isotopically labeled polyfluorinated compound useful as an imaging tracer” (PerkinElmer Health Sciences, Inc., priority 2006, dated 2010).
Read-outs that look alike come from different tables or passages of the source.

Experiments:
[1] = reported value; context: PFOA levels in American residents

SMILES: O=C(O)C(F)(F)C(F)(F)C(F)(F)C(F)(F)C(F)(F)C(F)(F)C(F)(F)F [PFOA, Perfluorooctanoic acid]
- primary tissues of distribution of PFOA-derived carbon-14 (female rats): liver, plasma, and kidney
- elimination of PFOA-derived radioactivity in the urine (female rats, carbon-14 labeled PFOA): rapidly
- primary tissues of distribution of PFOA-derived carbon-14 (male rats): liver and plasma
- administered carbon-14 eliminated in the urine (male rats, carbon-14 labeled PFOA, in the same period): 6%
- elimination half-life [1]: 4 years
